We go through eleven molecules from patent US8436183B2, “Synthetic multimerizing agents” (ARIAD Pharmaceuticals, Inc., priority 1994, dated 2013).

Where a name gives a salt, the structure may show the parent alone. Read-outs that look alike come from different tables or passages of the source.

In one test the target is T1, FKBP F36M (Homo sapiens, UniProt P62942, F37M).
T1 construct: made in house
The test is described as follows: Competitive Binding FP Assay, F36M mutant FKBP.

The target of the next test is T2, FKBP F36A (Homo sapiens, UniProt P62942, F37A).
T2 construct: made in house
The test is described as follows: Competitive Binding FP Assay, F36A mutant FKBP.

A further test deals with T3, FKBP F36I (Homo sapiens, UniProt P62942, F37I).
T3 construct: made in house
The test is described as follows: Competitive Binding FP Assay, F36I mutant FKBP.

Another test concerns the target T4, FKBP F36S (Homo sapiens, UniProt P62942, F37S).
T4 construct: made in house
The test is described as follows: Competitive Binding FP Assay, F36S mutant FKBP. To be noted: Synthetic Monomers table; normalized to FK506 run in the same experiment.

The target in another test is FKBP F36L (Homo sapiens, UniProt P62942, F37L). The test is described as follows: Competitive Binding FP Assay, F36L mutant FKBP.
The target of test [1] is T5, wild-type human FKBP12 (Homo sapiens, UniProt P62942). The test is described as follows: Competitive Binding FP Assay, wild-type FKBP. Particulars: for wild-type, % @ 100000: Synthetic Monomers table, @ 100000 nM competitor.
Description: (§1) Affinities of bumped synthetic ligands for FKBP were determined using a competitive assay based on fluorescence polarization (FP). […] The assay yields IC50 values that are related to the affinity of the competitive ligand for the protein.
(§2) For competition FP assays, the appropriate protein concentration (giving ˜90% binding of probe) was first determined by direct binding of probe to protein (see eg. Beacon FP System Applications Guide, Panvera Corp, Madison, Wis.). All binding assay procedures were performed at room temperature. Serial dilutions of each protein were prepared in 50 mM potassium phosphate pH 7.8/150 mM NaCl/100 μg/ml bovine gamma globulin (“FP buffer”: prepared using only low-fluorescence reagents from Panvera), and 100 μl volumes transferred to wells of a Dynatech micro-fluor black 96-well fluorescence plate. 100 μl of 10 nM 4 in FP buffer plus 2% ethanol (prepared from an ethanol stock of the probe) was then added to each well with mixing. Duplicate control wells contained FP buffer instead of FKBP (for 0% probe binding) or 10 μM wild-type FKBP (for 100% binding).
(§3) The plates were stored covered in the dark for approximately 30 min to permit equilibration and then the fluorescence polarization of the sample in each well was read on a Jolley FPM-2 FP plate reader (Jolley Consulting and Research, Inc., Grayslake, Ill.) in accordance with the manufacturer's recommendations. Polarization (mP units) for each protein concentration was plotted (y axis) vs. final concentration of FKBP (x axis). Concentrations were determined by OD280 measurements. Arbitrary units were used for non-quantitated proteins. Non-linear least square analysis was used to fit the curve and extract the Kd of the protein for the probe (in cases where the protein concentration was known) using the following four-parameter equation: y=M3+(((x+M1+M2)−SQRT(((x+M1+M2)^2)−(4*x*M1)))/(2*(M1)))*(M4−M3) where M1 is the probe concentration, M2 the Kd, and M3 and M4 the minimum and maximum mP values respectively.
(§4) Serial 10-fold dilutions of each synthetic ligand were prepared in 100% ethanol in glass vials and stored on ice. All other manipulations were performed at room temperature. […] Finally, a probe solution was prepared containing 10 nM 4 in 0.1% ethanol/FP buffer, and 100 μl added to each well with mixing. […]
(§5) The plates were stored covered in the dark for approximately 30 min to permit equilibration and then the fluorescence polarization of the sample in each well read on a Jolley FPM-2 FP plate reader (Jolley Consulting and Research, Inc., Grayslake, Ill.) in accordance with the manufacturer's recommendations. […] For incomplete curves the IC50 was determined by interpolation.
A further test deals with FKBP F36V (Homo sapiens, UniProt P62942, F37V). The test is described as follows: Competitive Binding FP Assay, F36V mutant FKBP.
Test [2] concerns the target T5, wild-type human FKBP12.
Description: as §1, §2, §3, §4, §5
Test [3] concerns the target T6, FAS-FKBP fusion (36V FKBP) in HT1080 cells (Homo sapiens, UniProt P62942, F37V).
T6 construct: fused on or other part: Fas intracellular effector domain (gives the death read-out)
The test is described as follows: Apoptosis Assay: Fas killing (36V, stable). Particulars: mean values. The test is classed as cell-based.
Excerpt: In this case, one uses cells which constitutively express a detectable product. The cells also contain and are capable of expressing DNAs encoding chimeric proteins comprising one or more immunophilin-derived ligand binding domains and one or more effector domains, such as the intracellular domain of FAS, capable, upon multimerization, of triggering cell death. […] The cells are maintained or cultured in a culture medium permitting cell growth or continued viability. The cells or medium are assayed for the presence of the constitutive cellular product, and a base-line level of reporter is thus established. One may use cells engineered for constitutive production of hGH or any other conveniently detectable product to serve as the reporter. […]
The ability of a dimerizer to activate the Fas signal transduction pathway and trigger cell death in cells engineered to express a FAS-FKBP fusion can be tested in cells appropriately transduced by retroviral vectors to express the desired fusion protein. […] The next day, medium is removed and replaced with medium containing 10% Alamar Blue viability indicator, which changes absorbance properties as a function of reducing agent released into the medium by cell metabolism. Alternatively, cells are counted. Optical density at the appropriate wavelength is measured using a platereader spectroscope.

Where [4] appears, read: Synthetic Monomers table, normalized to FK506 run in the same experiment.

T2 sequence (P62942 whole entry F37A): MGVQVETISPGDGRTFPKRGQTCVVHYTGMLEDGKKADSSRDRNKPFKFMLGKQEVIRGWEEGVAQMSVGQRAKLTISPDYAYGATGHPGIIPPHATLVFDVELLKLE
T5 sequence (P62942 whole entry): as the sequence (P62942 whole entry F37A) above, with A37F counted along it
Sequence of FKBP F36L (P62942 whole entry F37L): as the sequence (P62942 whole entry F37A) above, with A37L counted along it
T1 sequence (P62942 whole entry F37M): as the sequence (P62942 whole entry F37A) above, with A37M counted along it
T3 sequence (P62942 whole entry F37I): as the sequence (P62942 whole entry F37A) above, with A37I counted along it
Sequence of FKBP F36V (P62942 whole entry F37V): as the sequence (P62942 whole entry F37A) above, with A37V counted along it
T4 sequence (P62942 whole entry F37S): as the sequence (P62942 whole entry F37A) above, with A37S counted along it
T6 sequence (P62942 2-108 F37V limits assumed): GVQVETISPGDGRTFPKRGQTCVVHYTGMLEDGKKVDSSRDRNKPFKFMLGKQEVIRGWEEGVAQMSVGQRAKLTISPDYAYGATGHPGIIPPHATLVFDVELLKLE
Description for FKBP F36A: as §1, §2, §3
(§6) Serial 10-fold dilutions of each synthetic ligand were prepared in 100% ethanol in glass vials and stored on ice. All other manipulations were performed at room temperature. […] 2.0 μl samples of the synthetic ligands were then transferred in duplicate to the wells with mixing. Finally, a probe solution was prepared containing 10 nM 4 in 0.1% ethanol/FP buffer, and 100 μl added to each well with mixing. Duplicate control wells contained ethanol instead of FKBP ligand (for 100% probe binding) or ethanol instead of FKBP ligand and FP buffer instead of FKBP (0% binding).
(§7) The plates were stored covered in the dark for approximately 30 min to permit equilibration and then the fluorescence polarization of the sample in each well read on a Jolley FPM-2 FP plate reader (Jolley Consulting and Research, Inc., Grayslake, Ill.) in accordance with the manufacturer's recommendations. The mean polarization (mP units) for each competitor concentration, in some cases converted to % total binding by reference to the control values, was plotted (y axis) vs. log molar final concentration of competitor (x axis). Non-linear least square analysis was used to fit the curve and extract the IC50 using the following equation: y=M1+(M4−M1)/(1+exp(M2*(M3−x))) where M3 is the IC50. For incomplete curves the IC50 was determined by interpolation.
Description for FKBP F36I: as §1, §2, §3, §6, §7
Description for FKBP F36L: as §1, §2
The plates were stored covered in the dark for approximately 30 min to permit equilibration and then the fluorescence polarization of the sample in each well was read on a Jolley FPM-2 FP plate reader (Jolley Consulting and Research, Inc., Grayslake, Ill.) in accordance with the manufacturer's recommendations. Polarization (mP units) for each protein concentration was plotted (y axis) vs. final concentration of FKBP (x axis). Concentrations were determined by OD280 measurements. Arbitrary units were used for non-quantitated proteins. […]
as §5
Description for FKBP F36M: as §1, §2, §3, §6, §7
Description for FKBP F36S: as §1
(§8) For competition FP assays, the appropriate protein concentration (giving ˜90% binding of probe) was first determined by direct binding of probe to protein (see eg. Beacon FP System Applications Guide, Panvera Corp, Madison, Wis.). All binding assay procedures were performed at room temperature. Serial dilutions of each protein were prepared in 50 mM potassium phosphate pH 7.8/150 mM NaCl/100 μg/ml bovine gamma globulin (“FP buffer”: prepared using only low-fluorescence reagents from Panvera), and 100 μl volumes transferred to wells of a Dynatech micro-fluor black 96-well fluorescence plate. 100 μl of 10 nM 4 in FP buffer plus 2% ethanol (prepared from an ethanol stock of the probe) was then added to each well with mixing. […]
(§9) The plates were stored covered in the dark for approximately 30 min to permit equilibration and then the fluorescence polarization of the sample in each well was read on a Jolley FPM-2 FP plate reader (Jolley Consulting and Research, Inc., Grayslake, Ill.) in accordance with the manufacturer's recommendations. […] Concentrations were determined by OD280 measurements. Arbitrary units were used for non-quantitated proteins. […]
Description for FKBP F36V: as §1, §8, §9

Usually IC50 stands for the concentration that gives 50% inhibition. For `CC[C@H](C(=O)N1CCCC[C@H]1C(=O)O[C@H](CCc1cccnc1)c1cccc(OCC(=O)O)c1)c1cc(OC)c(OC)c(OC)c1` [AP14252, hydrochloride], the IC50 on FKBP F36M was found to be 54 nM; on FKBP F36A it was 63 nM; on FKBP F36I, 6.7 nM.
`CCC(C)(C)C(=O)C(=O)N1CCCC[C@H]1C(=O)O[C@H](CCc1ccc(OC)c(OC)c1)c1cccc(OCC(=O)O)c1` [AP1497]: the IC50 at FKBP F36A (setting [4]) was found to be 174 nM; at FKBP F36S, 1820 nM; at FKBP F36I (setting [4]), 43 nM.
For the molecule `COc1ccc(CC[C@@H](OC(=O)[C@@H]2CCCCN2C(=O)Cc2ccccc2)c2cccc(OCC(=O)O)c2)cc1OC` [AP1780], the IC50 on FKBP F36L (read-out: F36L IC50, Synthetic Monomers table, normalized to FK506 run in the same experiment) was found to be 3560 nM.
Consider `CC[C@H](C(=O)N1CCCC[C@H]1C(=O)O[C@H](CCN1CCOCC1)c1cccc(OCC(=O)O)c1)c1cc(OC)c(OC)c(OC)c1` [AP14246, (1R)-1-(3-(carboxymethoxy)phenyl)-3-(morpholino)-1-propyl (2S)-1-((2S)-(3,4,5-trimethoxyphenyl)butyryl)-2-piperidine carboxylate], for which the IC50 at FKBP F36M is 52 nM; on FKBP F36A it was 77 nM; at FKBP F36L it was 68 nM; on FKBP F36I, 32 nM; at FKBP F36V it was 16.5 nM. Also, the “wild-type, % @ 100000” value on wild-type human FKBP12 [1] is 75% @ 100000.
As to `COc1ccc(CCC(OC(=O)C2CCCCN2C(=O)C(c2ccccc2)C2CCCC2)c2cccc(OCC(=O)O)c2)cc1OC` (mixture of isomers) [AP1778], the IC50 on FKBP F36A (setting [4]) is 75 nM; at FKBP F36I (setting [4]), 41 nM.
`CC[C@H](C(=O)N1CCCC[C@H]1C(=O)O[C@H](CCc1ccc(OC)c(OC)c1)c1cccc(OCC(=O)O)c1)c1cc(OC)c(OC)c(OC)c1` [AP1867]: the IC50 at FKBP F36M was 10 nM; on FKBP F36A, 18 nM; at wild-type human FKBP12 [1] it was 2930 nM; on FKBP F36L, 6.2 nM; at FKBP F36I it was 5.1 nM; on FKBP F36V, 1.8 nM.
With `CCC(C(=O)N1CCCC[C@H]1C(=O)O[C@H](CCc1ccc(OC)c(OC)c1)c1cccc(OCC(=O)O)c1)c1ccc2c(c1)OCO2` (stereo partly drawn) [AP1839], the IC50 against wild-type human FKBP12 [2] was > 16900 nM.
For orientation: EC50 means the midpoint of the concentration-response curve. A high value points to lower potency in that assay. With AP20187, the EC50 in test [3] was < 1 nM.
With `COc1ccc(CCC(OC(=O)C2CCCCN2C(=O)C(c2ccccc2)C(C)C)c2cccc(OCC(=O)O)c2)cc1OC` (mixture of isomers) [AP1781], the values for the IC50 on FKBP F36M (setting [4]), at FKBP F36A (setting [4]) and on FKBP F36I (setting [4]) were 55 nM, 109 nM and 36 nM, respectively.
Regarding `COc1ccc(CC[C@@H](OC(=O)[C@@H]2CCCCN2C(=O)C(c2ccccc2)c2ccccc2)c2cccc(OCC(=O)O)c2)cc1OC` [AP14245], the “wild-type, % @ 100000” value on wild-type human FKBP12 [1] was 73% @ 100000.
Turning to `COc1ccc(CCC(OC(=O)C2CCCCN2C(=O)C(Cc2ccccc2)c2ccccc2)c2cccc(OCC(=O)O)c2)cc1OC` (mixture of isomers) [AP1831], the results for the half-maximal inhibitory concentration (IC50) on FKBP F36M (setting [4]), at FKBP F36A (setting [4]) and at FKBP F36I (setting [4]) were 169 nM, 447 nM and 124 nM, respectively.
